Values quoted from earlier work in patent US20090186081A1, “Disintegrating Loadable Tablets” (LifeCycle Pharma A/S, priority 2006, published 2009).
Where a name gives a salt, the structure may show the parent alone. Read-outs that look alike come from different tables or passages of the source.

What was measured:
[1] = not given; remark: listed apart in the source
[2] = Table 1, Poorly-Soluble Drug Candidates
[3] = Table 2, Poorly-Soluble Drugs with Low Bioavailability

Compound	Solubility In Water [2]	Solubility In Water [3]	further results
NC(=O)N1c2ccccc2C=Cc2ccccc21 [Carbamazepine]	Insoluble	–	–
CC(=O)N1CCN(c2ccc(OCC3COC(Cn4ccnc4)(c4ccc(Cl)cc4Cl)O3)cc2)CC1 (stereo not shown) [Ketoconazole]	Insoluble	–	–
OCCN1CCN(CCCN2c3ccccc3Sc3ccc(C(F)(F)F)cc32)CC1 [Fluphenazine]	–	Insoluble	–
CCOC(=O)[C@H](CCc1ccccc1)N[C@@H](C)C(=O)N1CCC[C@H]1C(=O)O [Enalapril]	Sparingly	–	–
O=[N+]([O-])O[C@H]1CO[C@H]2[C@@H]1OC[C@H]2O[N+](=O)[O-] [Isosorbide dinitrate]	Sparingly	Sparingly soluble	–
CC(CCc1ccc(O)cc1)NCCc1ccc(O)c(O)c1 (stereo not shown) [Dobutamine]	Sparingly	–	–
CCOC(=O)C1=C(C)NC(C)=C(C(=O)OC)C1c1cccc(Cl)c1Cl (stereo not shown) [Felodipine]	Insoluble	Insoluble	–
C#C[C@]1(O)CC[C@H]2[C@@H]3CCC4=Cc5oncc5C[C@]4(C)[C@H]3CC[C@@]21C [Danazol]	–	–	Bioavailability ([1]; in words): Low
COc1ccc2[nH]c([S+]([O-])Cc3ncc(C)c(OC)c3C)nc2c1 (stereo not shown) [Omeprazole]	Slightly	–	–
CN1CCN(C2=Nc3cc(Cl)ccc3Nc3ccccc32)CC1 [Clozapine]	Slightly	–	–
COc1ccc(CCN2CCC(Nc3nc4ccccc4n3Cc3ccc(F)cc3)CC2)cc1 [Astemizole]	Insoluble	Insoluble	Bioavailability ([1]; in words): Low-moderate
CC(=O)O[C@H]1C(=O)[C@@]2(C)[C@H]([C@H](OC(=O)c3ccccc3)[C@]3(O)C[C@H](OC(=O)[C@H](O)[C@@H](NC(=O)c4ccccc4)c4ccccc4)C(C)=C1C3(C)C)[C@]1(OC(C)=O)CO[C@@H]1C[C@@H]2O [Paclitaxel]	Insoluble	–	–
CC[C@H](C)C(=O)O[C@H]1C[C@@H](C)C=C2C=C[C@H](C)[C@H](CC[C@@H]3C[C@@H](O)CC(=O)O3)[C@H]21 [Lovastatin]	Insoluble	Insoluble	–
CC(C(=O)O)c1ccc(-c2ccccc2)c(F)c1 (stereo not shown) [Flurbiprofen]	Slightly	–	–
CC(=O)S[C@@H]1CC2=CC(=O)CC[C@]2(C)[C@H]2CC[C@@]3(C)[C@@H](CC[C@@]34CCC(=O)O4)[C@H]12 [Spironolactone]	–	Insoluble	–
CC1CC(OC(=O)C(O)c2ccccc2)CC(C)(C)C1 (stereo not shown) [Cyclandelate]	–	Insoluble	Bioavailability ([1]; in words): Low
CN1CCC[C@@H]1CCO[C@](C)(c1ccccc1)c1ccc(Cl)cc1 [Clemastine fumarate]	–	Slightly soluble	–
CC(C)(C)NC(=O)[C@H]1CC[C@H]2[C@@H]3CC[C@H]4NC(=O)C=C[C@]4(C)[C@H]3CC[C@]12C [Finasteride]	Insoluble	–	–
OCCN(CCO)c1nc(N2CCCCC2)c2nc(N(CCO)CCO)nc(N3CCCCC3)c2n1 [Dipyridamole]	Slightly	–	–
NC(N)=Nc1nc(CSCCC(N)=NS(N)(=O)=O)cs1 [Famotidine]	Slightly	Slightly soluble	–
C[C@@H]1C[C@H]2[C@@H]3CCC4=CC(=O)C=C[C@]4(C)[C@@]3(Cl)[C@@H](O)C[C@]2(C)[C@@]1(O)C(=O)CCl [Mometasone]	Insoluble	–	–
C[C@]12CC[C@H]3[C@@H](CCC4=CC(=O)CC[C@@]43C)[C@@H]1CC[C@@H]2O [Testosterone]	–	Insoluble	Bioavailability ([1]; in words): Low
COc1ccc2cc(CCC(C)=O)ccc2c1 [Nabumetone]	Insoluble	Insoluble	–
CC(C)(C)c1ccc(C(O)CCCN2CCC(C(O)(c3ccccc3)c3ccccc3)CC2)cc1 (stereo not shown) [Terfenadine]	Slightly	–	–
COC(=O)C1=C(C)NC(C)=C(C(=O)OC(C)C)C1c1cccc2nonc12 (stereo not shown) [Isradipine]	Insoluble	Insoluble	–
OC(CCN1CCCCC1)(c1ccccc1)C1CC2C=CC1C2 (stereo not shown) [Biperiden]	–	Sparingly soluble	–

Compound	Solubility In Water [2]	Solubility In Water [3]	further results
C[C@@](Cc1ccc(O)c(O)c1)(NN)C(=O)O [Carbidopa]	Slightly	–	–
CO/N=C(\C(=O)N[C@@H]1C(=O)N2C(C(=O)O)=C(COC(C)=O)CS[C@H]12)c1csc(N)n1 [Cefotaxime]	Sparingly	–	–
CCc1cccc2c3c([nH]c12)C(CC)(CC(=O)O)OCC3 (stereo not shown) [Etodolac]	Insoluble	–	–
CN[C@H]1CC[C@@H](c2ccc(Cl)c(Cl)c2)c2ccccc21 [Sertraline]	Slightly	Slightly soluble	–
Cc1nnc2n1-c1ccc(Cl)cc1C(c1ccccc1)=NC2 [Alprazolam]	Insoluble	–	–
CN1C(C(=O)Nc2ccccn2)=C(O)c2ccccc2S1(=O)=O [Piroxicam]	Sparingly	–	–
CN1CCCC(n2nc(Cc3ccc(Cl)cc3)c3ccccc3c2=O)CC1 (stereo not shown) [Azelastine]	Insoluble	–	–
CCOC(=O)[C@H](CCc1ccccc1)N[C@@H](C)C(=O)N1Cc2ccccc2C[C@H]1C(=O)O [Quinapril]	Insoluble	–	–
CC(=O)OC[C@H]1O[C@@H]([S-])[C@H](OC(C)=O)[C@@H](OC(C)=O)[C@@H]1OC(C)=O.CCP(CC)CC.[Au+] [Auranofin]	–	Slightly soluble	Bioavailability ([1]; in vivo): Low (15-25%)
Cc1cccc(Nc2ccccc2C(=O)O)c1C [Mefenamic acid]	Slightly	–	–
CCOC(=O)[C@H](CCc1ccccc1)N[C@@H](C)C(=O)N1[C@H](C(=O)O)C[C@@H]2CCC[C@@H]21 [Ramipril]	Insoluble	–	–
OC(Cn1cncn1)(Cn1cncn1)c1ccc(F)cc1F [Fluconazole]	Slightly	–	–
COc1cc([C@@H]2c3cc4c(cc3[C@@H](O[C@@H]3O[C@@H]5CO[C@@H](C)O[C@H]5[C@H](O)[C@H]3O)[C@H]3COC(=O)[C@H]23)OCO4)cc(OC)c1O [Etoposide]	Very Slightly	–	–
C=CCC1(CC(C)C)C(=O)NC(=O)NC1=O [Butalbital]	Insoluble	–	–
COCCCC/C(=N\OCCN)c1ccc(C(F)(F)F)cc1 [Fluvoxamine]	Sparingly	–	–
OCCN1CCN(CCCN2c3ccccc3Sc3ccc(Cl)cc32)CC1 [Perphenazine]	–	–	Bioavailability ([1]; in words): Low
CC1=C(/C=C/C(C)=C/C=C/C(C)=C\C(=O)O)C(C)(C)CCC1 [Isotretinoin]	Insoluble	–	–
CCCCCc1cc(O)c2c(c1)OC(C)(C)[C@@H]1CCC(C)=C[C@@H]21 [Dronabinol]	–	Insoluble	Bioavailability ([1]; in vivo): Low 10-20%)
CC(C)Cc1ccc(C(C)C(=O)O)cc1 (stereo not shown) [Ibuprofen]	Insoluble	–	–
Cc1ccc(-c2nc3ccc(C)cn3c2CC(=O)N(C)C)cc1 [Zolpidem]	Sparingly	–	–
Cc1c(OCC(F)(F)F)ccnc1C[S+]([O-])c1nc2ccccc2[nH]1 (stereo not shown) [Lansoprazole]	Insoluble	–	–
O=C1NC(=O)C(c2ccccc2)(c2ccccc2)N1 [Phenytoin]	Insoluble	–	–
CO[C@]12C[C@@H](COC(=O)c3cncc(Br)c3)CN(C)[C@@H]1Cc1cn(C)c3cccc2c13 [Nicergoline]	Insoluble	–	–
COc1cc2nc(N3CCN(C(=O)C4COc5ccccc5O4)CC3)nc(N)c2cc1OC (stereo not shown) [Doxazosin]	Slightly	–	–
